Laboratory results published in US20180117110A1, “METHOD OF TREATING CANCER” (THE WALTER AND ELIZA HALL INSTITUTE OF MEDICAL RESEARCH, priority 2014, published 2018).

Key:
[1] = tested on: advanced solid tumours and lymphoma; conditions: intravenous administration, Phase I; cited from earlier work
[2] = tested on: human AML patient samples; assay: Response of human AML patient samples to Birinapant in vitro; type: cell-based
[3] = tested on: low- and intermediate-1-risk Myelodysplastic syndromes; conditions: oral administration, Phase I/II; cited from earlier work
[4] = tested on: Bone Marrow Derived Macrophages (BMDM); assay: BMDM cell viability (CellTiter-Glo) after SMAC mimetic Compound A ± p38 or MK2 inhibitor; type: cell-based, mouse; conditions: inhibitor 30 min then 500 nM Compound A, 24 h, dose dependent (FIG. 1C)
Experimental: FIG. 1: p38 inhibitors increase TNFα production and cell death induced by SMAC mimetics. A. Bone Marrow Derived Macrophages (BMDM) were pretreated ±1 μM of the indicated p38 inhibitors for 30 min then treated with 500 nM of SMAC mimetic Compound A (CompA) for 24 h. TNFα production was measured by ELISA of supernatants. B. BMDM were pretreated 500 nM of SMAC mimetic Compound A, GT13072 or birinapant ±1 μM of LY2228820. TNFα production was measured by ELISA of supernatants. N=3 biological repeats and error bars are SEM. C. BMDM were pretreated ± the indicated dose of MK2 inhibitor PF-3644022 and the p38 inhibitor LY2228820, VX-702, TAK-715 or VX-745 for 30 min then treated with 500 nM of SMAC mimetic Compound A. Cell viability was measured after 24 h of treatment using CellTiter-Glo® (CTG) reagent. N=3 biological repeats and error bars are SEM.
BMDMs from C56/B16, p38α^LysMCre or Mk2^−/− were cultured for 6 days in DMEM+10% FBS (v/v)+20% L929 mouse fibroblasts (a source of macrophage colony stimulating factor), plated and assayed the following day. BMDMs cells were seeded and assayed in the presence of L929 conditioned medium. AML cells were cultured in IMDM +10% FBS (v/v)+2.5 ng/ml of IL-3. NCI-H929 cells were cultured in RPMI+10% FBS (v/v). Cell suspension from breast ER+ patient derived tumours was cultured in mammosphere media. After treatment with SMAC mimetic with or without kinases inhibitors cell viability was measured by staining with propidium iodide (2 μg/mL) or by using CellTiter-Glo® (Promega).

C57BL6 mice = assay: Tolerability of SMAC mimetic plus p38 inhibitor in non tumour-bearing mice; type: in vivo; conditions: 5 mg/kg GT13072 + 15 mg/kg LY2228820 i.p. (FIG. 7C)
Experimental: FIG. 7: Mice tolerate administration of birinapant plus p38 inhibitor. A. Mononuclear cells isolated from healthy donor by Ficoll sedimentation were treated for 48 h with indicated drugs. CD34^+ cell death was measured by staining with PI and flow cytometry. For each donor sample, graphs show mean of at least n=2 technical replicates across n=2-5 independent experiments. B and C. C57BL/6 mice were intra-peritoneally injected with vehicle (captisol 6%) or birinapant (B) or GT13072 (C) or LY2228820 or combination of LY2228820 and SM at indicated concentration. Mice received 8 injections twice a week over 4 weeks. Mice were euthanised 2 weeks after the treatment stopped. Graphs show organs, body weights and blood cell populations with 6 mice/group (B), 4 mice/group (C). Error bars are SEM.
To assess the safety of SMAC mimetic plus p38 inhibitor C57BL6 mice were injected by intra-peritoneal route twice a week for 4 weeks with either vehicle (6% Captisol) or 15 mg/kg of LY222820 or 5 mg/kg birinapant ±15 mg/kg LY2228820, or 10 mg/kg birinapant±15 mg/kg LY2228820. Another cohort received either vehicle or 5 mg/kg of GT13072, or 15 mg/kg of LY222820 or combination.
200 μL of blood was collected from the retro-orbital plexus into tubes containing potassium ethylenediaminetetraacetic acid (Sarstedt) and analyzed in an Advia 2120 automated hematologic analyzer (Bayer).

[5] = tested on: Bone Marrow Derived Macrophages (BMDM); assay: TNFα production by ELISA of supernatants of BMDM treated with SMAC mimetic ± p38 inhibitors (kinase inhibitors screen); type: cell-based, mouse; conditions: 500 nM SMAC mimetic ± 1 μM LY2228820 (FIG. 1B)
Experimental: FIG. 1: p38 inhibitors increase TNFα production and cell death induced by SMAC mimetics. A. Bone Marrow Derived Macrophages (BMDM) were pretreated ±1 μM of the indicated p38 inhibitors for 30 min then treated with 500 nM of SMAC mimetic Compound A (CompA) for 24 h. TNFα production was measured by ELISA of supernatants. B. BMDM were pretreated 500 nM of SMAC mimetic Compound A, GT13072 or birinapant ±1 μM of LY2228820. TNFα production was measured by ELISA of supernatants. N=3 biological repeats and error bars are SEM. C. BMDM were pretreated ± the indicated dose of MK2 inhibitor PF-3644022 and the p38 inhibitor LY2228820, VX-702, TAK-715 or VX-745 for 30 min then treated with 500 nM of SMAC mimetic Compound A. Cell viability was measured after 24 h of treatment using CellTiter-Glo® (CTG) reagent. N=3 biological repeats and error bars are SEM. BMDMs from C56/B16, p38α^LysMCre or Mk2^−/− were cultured for 6 days in DMEM+10% FBS (v/v)+20% L929 mouse fibroblasts (a source of macrophage colony stimulating factor), plated and assayed the following day. BMDMs cells were seeded and assayed in the presence of L929 conditioned medium. AML cells were cultured in IMDM +10% FBS (v/v)+2.5 ng/ml of IL-3. […] After treatment with SMAC mimetic with or without kinases inhibitors cell viability was measured by staining with propidium iodide (2 μg/mL) or by using CellTiter-Glo® (Promega). […]

SMILES: CC[C@H](NC(=O)[C@H](C)NC)C(=O)N1C[C@@H](O)C[C@H]1Cc1c(-c2[nH]c3cc(F)ccc3c2C[C@@H]2C[C@H](O)CN2C(=O)[C@H](CC)NC(=O)[C@H](C)NC)[nH]c2cc(F)ccc12 [Birinapant]
- anti-tumour activity in patients [1]: evidence of anti-tumour activity
- tolerability in patients [1]: well tolerated with no dose-limiting toxicities
- response of human AML patient samples to single agent treatment [2]: some human AML patient samples did not respond

SMILES: C[C@@H]1CN(Cc2ccc(F)cc2)[C@@H](C)CN1C(=O)c1cc2c(C(=O)C(=O)N(C)C)cn(C)c2cc1Cl [Talmapimod]
- complete remission [3]: only one patient achieved a complete remission
- tolerability in patients [3]: well tolerated

SMILES: CC(C)(C)Cn1c(N)nc2ccc(-c3[nH]c(C(C)(C)C)nc3-c3ccc(F)cc3)nc21 [LY2228820]
- cell death induced by SMAC mimetics [4]: dramatically increased cell death
- effect of LY2228820 on populations of white blood cells (ADVIA analysis) (C57BL6 mice): nor affect the populations of white blood cells
- effect of LY2228820 on the splenomegaly induced by GT13072 (C57BL6 mice): did not even exacerbate the splenomegaly
- TNF production of three different smac-mimetics (CompA, GT13072 and birinapant) [5]: increased TNF production

SMILES: CCc1nc(-c2cccc(C)c2)c(-c2ccnc(NC(=O)c3ccccc3)c2)s1 [TAK-715]
- cell death induced by SMAC mimetics [4]: dramatically increased cell death

SMILES: NC(=O)c1ccc(N(C(N)=O)c2c(F)cccc2F)nc1-c1ccc(F)cc1F [VX-702]
- cell death induced by SMAC mimetics [4]: dramatically increased cell death

SMILES: O=c1ncn2nc(Sc3ccc(F)cc3F)ccc2c1-c1c(Cl)cccc1Cl [VX-745]
- cell death induced by SMAC mimetics [4]: dramatically increased cell death

SMILES: Cc1ccc(-c2ccc3c(ccc4sc5c(c43)NC[C@@H](C)NC5=O)n2)cn1 [PF-3644022]
- cell death induced by SMAC mimetics [4]: dramatically increased cell death
